Columns and labels:
MOOVA (Monochoria) = test: Preemergence weed control under flooded paddy conditions; type: in vivo, Monochoria vaginalis; conditions: rated 3-4 weeks after treatment
In short: (§1)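 Visual injury scored 0-9 against control three to four weeks post-treatment, greenhouse-grown. Application: acetone/water (50/50) solutions dosed directly into flood water (1.5-3 cm over silt loam, planted top 0.5 cm), roughly 0.0313 to 0.500 kg/ha active ingredient.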

[1] = tested on: SAGPY (Arrowhead (Pygmaea)); test: as above; type: in vivo, Sagittaria pygmaea; conditions: rated 3-4 weeks after treatment
In short: as §1

[2] = tested on: IPOHE (Morningglory, Ivyleaf); test: Postemergence herbicidal evaluation; type: in vivo, Ipomoea hederacea; conditions: postemergence
In short: (§2)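 Compound is applied as a foliar spray to seedlings about two weeks old, formulated in equal parts acetone and water with 0.5% TWEEN 20 and delivered at 40 psi to give about 0.0156–0.500 kg per hectare. Injury is rated visually 0–9 after four to five weeks.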

ECHCG (Barnyardgrass) = test: Postemergence herbicidal evaluation; type: in vivo, Echinochloa crus-galli; conditions: postemergence
In short: as §2

[3] = tested on: CHEAL (Lambsquarters, Common); test: Preemergence herbicidal evaluation; type: in vivo, Chenopodium album; conditions: rated 4-5 weeks after treatment
In short: (§3)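 Sown cups got a single aqueous acetone spray of test compound (roughly 0.0156–0.500 kg/ha) before seedlings emerged. Evaluation, 4–5 weeks on, used a 0–9 visual scale covering plant stand, vigor, size, malformation, chlorosis and general appearance compared with controls.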

CASOB (Sicklepod) [4] = test: Preemergence herbicidal evaluation; type: in vivo, Cassia obtusifolia; conditions: rated 4-5 weeks after treatment
In short: as §3

AMBEL (Ragweed, Common) [5] = test: Postemergence herbicidal evaluation; type: in vivo, Ambrosia artemisifolia; conditions: postemergence
In short: as §2

ABUTH (Velvetleaf) = test: Preemergence herbicidal evaluation; type: in vivo, Abutilon theophrasti; conditions: rated 4-5 weeks after treatment
In short: as §3

[6] = tested on: GLXMAW (Soybean, Williams); test: Postemergence herbicidal evaluation; type: in vivo, Glycine max, (L.) Merr. cv Williams; conditions: postemergence
In short: as §2

[7] = tested on: TRZAWR (Wheat, Winter, cv Riband); test: Postemergence herbicidal evaluation; type: in vivo, Triticum aestivum; conditions: postemergence
In short: as §2

[8] = tested on: IPOHE (Morningglory, Ivyleaf); test: Preemergence herbicidal evaluation; type: in vivo, Ipomoea hederacea; conditions: rated 4-5 weeks after treatment
In short: as §3

[9] = tested on: GLXMAW (Soybean, Williams); test: Preemergence herbicidal evaluation; type: in vivo, Glycine max, (L.) Merr. cv Williams; conditions: rated 4-5 weeks after treatment
In short: as §3

CASOB (Sicklepod) [10] = test: Postemergence herbicidal evaluation; type: in vivo, Cassia obtusifolia; conditions: postemergence
In short: as §2

[11] = tested on: CHEAL (Lambsquarters, Common); test: Postemergence herbicidal evaluation; type: in vivo, Chenopodium album; conditions: postemergence
In short: as §2

AMBEL (Ragweed, Common) [12] = test: Preemergence herbicidal evaluation; type: in vivo, Ambrosia artemisifolia; conditions: rated 4-5 weeks after treatment
In short: as §3

ORYSAT (Rice, Tebonnet) = test: Preemergence herbicidal evaluation; type: in vivo, Oryza sativa, (L.) Tebonnet; conditions: rated 4-5 weeks after treatment
In short: as §3

CCOC(=O)CN1C(=O)C(Cc2ccccc2)SC1=Nc1cc(-n2c(=O)cc(C(F)(F)F)n(C)c2=O)c(F)cc1Cl (centres unmarked) [Compound 24, Ethyl 5-benzyl-2-{{2-chloro-5-[3,6-dihydro-3-methyl-2,6-dioxo-4-(trifluoromethyl)-1(2H)-pyrimidinyl]-4-fluorophenyl}imino}-4-oxo-3-thiazolidineacetate]
Herbicidal rating MOOVA (MOOVA (Monochoria); 0.0313 kg/ha): 0.0 | Herbicidal rating MOOVA (MOOVA (Monochoria); 0.0625 kg/ha): 9.0 | Herbicidal rating MOOVA (MOOVA (Monochoria); 0.1250 kg/ha): 9.0 | Herbicidal rating MOOVA (MOOVA (Monochoria); 0.2500 kg/ha): 9.0 | Herbicidal rating SAGPY ([1]; 0.0313 kg/ha): 0.0 | Herbicidal rating SAGPY ([1]; 0.0625 kg/ha): 0.0 | Herbicidal rating SAGPY ([1]; 0.1250 kg/ha): 0.0 | Herbicidal rating SAGPY ([1]; 0.2500 kg/ha): 0.0 | IPOHE herbicidal rating ([2]; rate 0.0158 kg/ha): 2.0 | IPOHE herbicidal rating ([2]; rate 0.0315 kg/ha): 9.0 | ECHCG herbicidal rating (ECHCG (Barnyardgrass); rate 0.0158 kg/ha): 0.0 | ECHCG herbicidal rating (ECHCG (Barnyardgrass); rate 0.0315 kg/ha): 0.0 | ECHCG herbicidal rating (ECHCG (Barnyardgrass); rate 0.0630 kg/ha): 0.0 | CHEAL preemergence herbicidal rating ([3]; rate 0.0625 kg/ha): 9.0 | CHEAL preemergence herbicidal rating ([3]; rate 0.1250 kg/ha): 9.0 | CHEAL preemergence herbicidal rating ([3]; rate 0.2500 kg/ha): 9.0 | CASOB preemergence herbicidal rating (CASOB (Sicklepod) [4]; rate 0.0625 kg/ha): 0.0 | CASOB preemergence herbicidal rating (CASOB (Sicklepod) [4]; rate 0.1250 kg/ha): 0.0 | CASOB preemergence herbicidal rating (CASOB (Sicklepod) [4]; rate 0.2500 kg/ha): 0.0 | AMBEL herbicidal rating (AMBEL (Ragweed, Common) [5]; rate 0.0158 kg/ha): 2.0 | AMBEL herbicidal rating (AMBEL (Ragweed, Common) [5]; rate 0.0315 kg/ha): 3.0 | AMBEL herbicidal rating (AMBEL (Ragweed, Common) [5]; rate 0.0630 kg/ha): 9.0 | ABUTH preemergence herbicidal rating (ABUTH (Velvetleaf); rate 0.0625 kg/ha): 4.0 | ABUTH preemergence herbicidal rating (ABUTH (Velvetleaf); rate 0.1250 kg/ha): 9.0 | ABUTH preemergence herbicidal rating (ABUTH (Velvetleaf); rate 0.2500 kg/ha): 9.0 | GLXMAW herbicidal rating ([6]; rate 0.0158 kg/ha): 4.0 | GLXMAW herbicidal rating ([6]; rate 0.0315 kg/ha): 5.0 | GLXMAW herbicidal rating ([6]; rate 0.0630 kg/ha): 5.5 | TRZAWR herbicidal rating ([7]; rate 0.0158 kg/ha): 3.5 | TRZAWR herbicidal rating ([7]; rate 0.0315 kg/ha): 3.5 | TRZAWR herbicidal rating ([7]; rate 0.0630 kg/ha): 3.5 | IPOHE preemergence herbicidal rating ([8]; rate 0.0625 kg/ha): 0.0 | IPOHE preemergence herbicidal rating ([8]; rate 0.1250 kg/ha): 0.0 | IPOHE preemergence herbicidal rating ([8]; rate 0.2500 kg/ha): 0.0 | GLXMAW preemergence herbicidal rating ([9]; rate 0.0625 kg/ha): 0.0 | GLXMAW preemergence herbicidal rating ([9]; rate 0.1250 kg/ha): 0.0 | GLXMAW preemergence herbicidal rating ([9]; rate 0.2500 kg/ha): 0.0 | CASOB herbicidal rating (CASOB (Sicklepod) [10]; rate 0.0158 kg/ha): 0.0 | CASOB herbicidal rating (CASOB (Sicklepod) [10]; rate 0.0315 kg/ha): 0.0 | CASOB herbicidal rating (CASOB (Sicklepod) [10]; rate 0.0630 kg/ha): 0.0 | CHEAL herbicidal rating ([11]; rate 0.0158 kg/ha): 2.0 | CHEAL herbicidal rating ([11]; rate 0.0315 kg/ha): 4.0 | CHEAL herbicidal rating ([11]; rate 0.0630 kg/ha): 9.0 | AMBEL preemergence herbicidal rating (AMBEL (Ragweed, Common) [12]; rate 0.0625 kg/ha): 0.0 | AMBEL preemergence herbicidal rating (AMBEL (Ragweed, Common) [12]; rate 0.1250 kg/ha): 0.0 | AMBEL preemergence herbicidal rating (AMBEL (Ragweed, Common) [12]; rate 0.2500 kg/ha): 2.0 | ORYSAT preemergence herbicidal rating (ORYSAT (Rice, Tebonnet); rate 0.0625 kg/ha): 0.0 | ORYSAT preemergence herbicidal rating (ORYSAT (Rice, Tebonnet); rate 0.1250 kg/ha): 0.0 | ORYSAT preemergence herbicidal rating (ORYSAT (Rice, Tebonnet); rate 0.2500 kg/ha): 0.0

CCOC(=O)CN1C(=O)CN(C)C1=Nc1cc(-n2c(=O)cc(C(F)(F)F)n(C)c2=O)c(F)cc1Cl [Compound 25, Ethyl 2-{{2-chloro-5-[3,6-dihydro-3-methyl-2,6-dioxo-4-(trifluoromethyl)-1(2H)-pyrimidinyl]-4-fluorophenyl}imino}-3-methyl-5-oxo-1-imidazolidineacetate]
Herbicidal rating MOOVA (MOOVA (Monochoria); 0.0313 kg/ha): 9.0 | Herbicidal rating MOOVA (MOOVA (Monochoria); 0.0625 kg/ha): 9.0 | Herbicidal rating MOOVA (MOOVA (Monochoria); 0.1250 kg/ha): 9.0 | Herbicidal rating MOOVA (MOOVA (Monochoria); 0.2500 kg/ha): 9.0 | Herbicidal rating SAGPY ([1]; 0.0313 kg/ha): 0.0 | Herbicidal rating SAGPY ([1]; 0.0625 kg/ha): 0.0 | Herbicidal rating SAGPY ([1]; 0.1250 kg/ha): 5.0 | Herbicidal rating SAGPY ([1]; 0.2500 kg/ha): 5.0 | IPOHE herbicidal rating ([2]; rate 0.0156 kg/ha): 9.0 | IPOHE herbicidal rating ([2]; rate 0.0313 kg/ha): 9.0 | IPOHE herbicidal rating ([2]; rate 0.0625 kg/ha): 9.0 | ECHCG herbicidal rating (ECHCG (Barnyardgrass); rate 0.0156 kg/ha): 0.0 | ECHCG herbicidal rating (ECHCG (Barnyardgrass); rate 0.0313 kg/ha): 0.0 | ECHCG herbicidal rating (ECHCG (Barnyardgrass); rate 0.0625 kg/ha): 0.0 | Preemergence herbicidal rating CHEAL ([3]; rate 0.0156 kg/ha): 7.0 | Preemergence herbicidal rating CHEAL ([3]; rate 0.0313 kg/ha): 9.0 | CHEAL preemergence herbicidal rating ([3]; rate 0.0625 kg/ha): 9.0 | CHEAL preemergence herbicidal rating ([3]; rate 0.1250 kg/ha): 9.0 | CHEAL preemergence herbicidal rating ([3]; rate 0.2500 kg/ha): 9.0 | Preemergence herbicidal rating CASOB (CASOB (Sicklepod) [4]; rate 0.0156 kg/ha): 0.0 | Preemergence herbicidal rating CASOB (CASOB (Sicklepod) [4]; rate 0.0313 kg/ha): 0.0 | CASOB preemergence herbicidal rating (CASOB (Sicklepod) [4]; rate 0.0625 kg/ha): 0.0 | CASOB preemergence herbicidal rating (CASOB (Sicklepod) [4]; rate 0.1250 kg/ha): 2.0 | CASOB preemergence herbicidal rating (CASOB (Sicklepod) [4]; rate 0.2500 kg/ha): 3.0 | AMBEL herbicidal rating (AMBEL (Ragweed, Common) [5]; rate 0.0156 kg/ha): 3.0 | AMBEL herbicidal rating (AMBEL (Ragweed, Common) [5]; rate 0.0313 kg/ha): 4.0 | AMBEL herbicidal rating (AMBEL (Ragweed, Common) [5]; rate 0.0625 kg/ha): 9.0 | Preemergence herbicidal rating ABUTH (ABUTH (Velvetleaf); rate 0.0156 kg/ha): 9.0 | Preemergence herbicidal rating ABUTH (ABUTH (Velvetleaf); rate 0.0313 kg/ha): 9.0 | ABUTH preemergence herbicidal rating (ABUTH (Velvetleaf); rate 0.0625 kg/ha): 9.0 | ABUTH preemergence herbicidal rating (ABUTH (Velvetleaf); rate 0.1250 kg/ha): 9.0 | ABUTH preemergence herbicidal rating (ABUTH (Velvetleaf); rate 0.2500 kg/ha): 9.0 | GLXMAW herbicidal rating ([6]; rate 0.0156 kg/ha): 7.0 | GLXMAW herbicidal rating ([6]; rate 0.0313 kg/ha): 7.5 | GLXMAW herbicidal rating ([6]; rate 0.0625 kg/ha): 8.0 | TRZAWR herbicidal rating ([7]; rate 0.0156 kg/ha): 2.0 | TRZAWR herbicidal rating ([7]; rate 0.0313 kg/ha): 3.0 | TRZAWR herbicidal rating ([7]; rate 0.0625 kg/ha): 3.0 | Preemergence herbicidal rating IPOHE ([8]; rate 0.0156 kg/ha): 0.0 | Preemergence herbicidal rating IPOHE ([8]; rate 0.0313 kg/ha): 0.0 | IPOHE preemergence herbicidal rating ([8]; rate 0.0625 kg/ha): 0.0 | IPOHE preemergence herbicidal rating ([8]; rate 0.1250 kg/ha): 2.0 | IPOHE preemergence herbicidal rating ([8]; rate 0.2500 kg/ha): 5.0 | Preemergence herbicidal rating GLXMAW ([9]; rate 0.0156 kg/ha): 0.0 | Preemergence herbicidal rating GLXMAW ([9]; rate 0.0313 kg/ha): 0.0 | GLXMAW preemergence herbicidal rating ([9]; rate 0.0625 kg/ha): 2.0 | GLXMAW preemergence herbicidal rating ([9]; rate 0.1250 kg/ha): 3.0 | GLXMAW preemergence herbicidal rating ([9]; rate 0.2500 kg/ha): 6.0 | CASOB herbicidal rating (CASOB (Sicklepod) [10]; rate 0.0156 kg/ha): 0.0 | CASOB herbicidal rating (CASOB (Sicklepod) [10]; rate 0.0313 kg/ha): 0.0 | CASOB herbicidal rating (CASOB (Sicklepod) [10]; rate 0.0625 kg/ha): 0.0 | CHEAL herbicidal rating ([11]; rate 0.0156 kg/ha): 2.0 | CHEAL herbicidal rating ([11]; rate 0.0313 kg/ha): 5.0 | CHEAL herbicidal rating ([11]; rate 0.0625 kg/ha): 9.0 | Preemergence herbicidal rating AMBEL (AMBEL (Ragweed, Common) [12]; rate 0.0156 kg/ha): 0.0 | Preemergence herbicidal rating AMBEL (AMBEL (Ragweed, Common) [12]; rate 0.0313 kg/ha): 2.0 | AMBEL preemergence herbicidal rating (AMBEL (Ragweed, Common) [12]; rate 0.0625 kg/ha): 9.0 | AMBEL preemergence herbicidal rating (AMBEL (Ragweed, Common) [12]; rate 0.1250 kg/ha): 9.0 | AMBEL preemergence herbicidal rating (AMBEL (Ragweed, Common) [12]; rate 0.2500 kg/ha): 9.0 | Preemergence herbicidal rating ORYSAT (ORYSAT (Rice, Tebonnet); rate 0.0156 kg/ha): 0.0 | Preemergence herbicidal rating ORYSAT (ORYSAT (Rice, Tebonnet); rate 0.0313 kg/ha): 0.0 | ORYSAT preemergence herbicidal rating (ORYSAT (Rice, Tebonnet); rate 0.0625 kg/ha): 0.0 | ORYSAT preemergence herbicidal rating (ORYSAT (Rice, Tebonnet); rate 0.1250 kg/ha): 2.0 | ORYSAT preemergence herbicidal rating (ORYSAT (Rice, Tebonnet); rate 0.2500 kg/ha): 5.0
